Experimental findings from US11382918B2, “Methods for treating Huntington's Disease” (PTC Therapeutics, Inc., priority 2017, dated 2022) are described below.

The test system of the assay is Endogenous Huntingtin Protein (HTT). In words: Endogenous Huntingtin Protein Assay (ELISA-based MSD electrochemiluminescence). The format is cell-based. As to conditions: Table 1. Summed up:
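HTT protein in lysates was measured by electrochemiluminescence on the MSD platform. Rabbit monoclonal 5656S followed by SULFO-TAG anti-rabbit antibody served for detection after overnight 4 °C capture with MAB2166 or the polyglutamine-directed MW1 antibody.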
Background: ELISA stands for enzyme-linked immunosorbent assay.
The term IC50 denotes the point on the concentration scale where inhibition reaches its midpoint. The compound `Cc1cn2nc(-c3cc(=O)n4cc(C5CCN(C)CC5)ncc4n3)cc2c(C)n1` [compound 503, 2-(4,6-dimethylpyrazolo[1,5-a]pyrazin-2-yl)-7-(1-methylpiperidin-4-yl)-4H-pyrazino[1,2-a]pyrimidin-4-one] returned an IC50 of 1000 to 3000 nM.
With `CCN1CCC(c2cn3c(=O)cc(-c4cc5c(C)nc(C)cn5n4)nc3cn2)CC1` [compound 504, 2-(4,6-dimethylpyrazolo[1,5-a]pyrazin-2-yl)-7-(1-ethylpiperidin-4-yl)-4H-pyrazino[1,2-a]pyrimidin-4-one] the figure was 100 to 500 nM; with `Cn1ncc2cc(-c3cc(=O)n4cc(C5=CCNCC5)ncc4n3)ccc21` [compound 505, 2-(1-methyl-1H-indazol-5-yl)-7-(1,2,3,6-tetrahydropyridin-4-yl)-4H-pyrazino[1,2-a]pyrimidin-4-one], 3000 to 33000 nM.
For `CN1CC=C(c2cn3c(=O)cc(-c4ccc5c(cnn5C)c4)nc3cn2)CC1` [compound 506, 2-(1-methyl-1H-indazol-5-yl)-7-(1-methyl-1,2,3,6-tetrahydropyridin-4-yl)-4H-pyrazino[1,2-a]pyrimidin-4-one] the value was 3000 to 33000 nM.
Regarding `CCN1CC=C(c2cn3c(=O)cc(-c4ccc5c(cnn5C)c4)nc3cn2)CC1` [compound 507, 7-(1-ethyl-1,2,3,6-tetrahydropyridin-4-yl)-2-(1-methyl-1H-indazol-5-yl)-4H-pyrazino[1,2-a]pyrimidin-4-one], the IC50 was in the range of 3000 to 33000 nM.
For `Cc1cn2cc(-c3cc(=O)n4cc(C5CCNCC5)ccc4n3)cc(Cl)c2n1` [compound 516, 2-(8-chloro-2-methylimidazo[1,2-a]pyridin-6-yl)-7-(piperidin-4-yl)-4H-pyrido[1,2-a]pyrimidin-4-one], the IC50 was < 100 nM.
For `Cc1cn2nc(-c3cc(=O)n4cc(C5CCN(CCO)CC5)ccc4n3)cc2c(C)n1` [compound 530, 2-(4,6-dimethylpyrazolo[1,5-a]pyrazin-2-yl)-7-[1-(2-hydroxyethyl)piperidin-4-yl]-4H-pyrido[1,2-a]pyrimidin-4-one] the value was 3000 to 33000 nM.
Compound `Cc1cn2nc(-c3cc(=O)n4cc(N5CCN(CCO)CC5)ccc4n3)cc2c(C)n1` [compound 531, 2-(4,6-dimethylpyrazolo[1,5-a]pyrazin-2-yl)-7-[4-(2-hydroxyethyl)piperazin-1-yl]-4H-] returned an IC50 of 3000 to 33000 nM.
With `Cc1cn2nc(-c3cc(=O)n4cc(N5CCN(CCO)[C@H](C)C5)ccc4n3)cc2c(C)n1` [compound 532, 2-(4,6-dimethylpyrazolo[1,5-a]pyrazin-2-yl)-7-[(3R)-4-(2-hydroxyethyl)-3-methylpiperazin-1-yl]-4H-pyrido[1,2-a]pyrimidin-4-one] the figure was 1000 to 3000 nM.
With `Cc1cn2cc(-c3cc(=O)n4cc(N5CCN(CCOCCO)[C@@H](C)C5)ccc4n3)cc(F)c2n1` [compound 540, 2-(8-fluoro-2-methylimidazo[1,2-a]pyridin-6-yl)-7-{(3S)-4-[2-(2-hydroxyethoxy)ethyl]-3-methylpiperazin-1-yl}-4H-pyrido[1,2-a]pyrimidin-4-one] the figure was 1000 to 3000 nM; with `C[C@@H]1CN(c2ccc3nc(-c4ccc5c(cnn5C)c4)cc(=O)n3c2)CCN1` [compound 545, 2-(1-methyl-1H-indazol-5-yl)-7-[(3R)-3-methylpiperazin-1-yl]-4H-pyrido[1,2-a]pyrimidin-4-one], 3000 to 33000 nM.
For `CCc1nc(C)cn2nc(-c3cc(=O)n4cc(N5CCNCC5)ccc4n3)cc12` [compound 546, 2-(4-ethyl-6-methylpyrazolo[1,5-a]pyrazin-2-yl)-7-(piperazin-1-yl)-4H-pyrido[1,2-a]pyrimidin-4-one] the value was 1000 to 3000 nM; for `CCc1nc(C)cn2nc(-c3cc(=O)n4cc(N5CCN(CCO)CC5)ccc4n3)cc12` [compound 549, 2-(4-ethyl-6-methylpyrazolo[1,5-a]pyrazin-2-yl)-7-[4-(2-hydroxyethyl)piperazin-1-yl]-4H-pyrido[1,2-a]pyrimidin-4-one], 3000 to 33000 nM; for `CCc1nc(C)cn2nc(-c3cc(=O)n4cc(N5CCC(N(C)C)CC5)ccc4n3)cc12` [compound 550, 7-[4-(dimethylamino)piperidin-1-yl]-2-(4-ethyl-6-methylpyrazolo[1,5-a]pyrazin-2-yl)-4H-pyrido[1,2-a]pyrimidin-4-one], 3000 to 33000 nM.
With `C[C@@H]1CN(c2ccc3nc(-c4ccc5c(cnn5C)c4)cc(=O)n3c2)C[C@H](C)N1` [compound 552, 7-[(3R,5S)-3,5-dimethylpiperazin-1-yl]-2-(1-methyl-1H-indazol-5-yl)-4H-pyrido[1,2-a]pyrimidin-4-one], the IC50 lay in the range of 3000 to 33000 nM.
For `C[C@H]1CN(c2ccc3nc(-c4ccc5c(cnn5C)c4)cc(=O)n3c2)CCN1` [compound 553, 2-(1-methyl-1H-indazol-5-yl)-7-[(3S)-3-methylpiperazin-1-yl]-4H-pyrido[1,2-a]pyrimidin-4-one] the value was 3000 to 33000 nM; for `Cc1cn2ccc(-c3cc(=O)n4cc(N5CCNCC5)ccc4n3)cc2n1` [compound 555, 2-(2-methylimidazo[1,2-a]pyridin-7-yl)-7-(piperazin-1-yl)-4H-pyrido[1,2-a]pyrimidin-4-one], 3000 to 33000 nM; for `Cc1cn2ccc(-c3cc(=O)n4cc(C5CCNCC5)ccc4n3)cc2n1` [compound 556, 2-(2-methylimidazo[1,2-a]pyridin-7-yl)-7-(piperidin-4-yl)-4H-pyrido[1,2-a]pyrimidin-4-one], 3000 to 33000 nM.
With `Cc1cn2ccc(-c3cc(=O)n4cc(N5CCN(C)CC5)ccc4n3)cc2n1` [compound 557, 2-(2-methylimidazo[1,2-a]pyridin-7-yl)-7-(4-methylpiperazin-1-yl)-4H-pyrido[1,2-a]pyrimidin-4-one] the figure was 3000 to 33000 nM.
With `Cn1cc2cc(-c3cc(=O)n4cc(C5CCNCC5)ncc4n3)ccc2n1` [compound 566, 2-(2-methyl-2H-indazol-5-yl)-7-(piperidin-4-yl)-4H-pyrazino[1,2-a]pyrimidin-4-one] the figure was 100 to 500 nM; with `CN1CCC(c2cn3c(=O)cc(-c4ccc5nn(C)cc5c4)nc3cn2)CC1` [compound 567, 2-(2-methyl-2H-indazol-5-yl)-7-(1-methylpiperidin-4-yl)-4H-pyrazino[1,2-a]pyrimidin-4-one], 3000 to 33000 nM.
For the compound `CCN1CCC(c2cn3c(=O)cc(-c4ccc5nn(C)cc5c4)nc3cn2)CC1` [compound 568, 7-(1-ethylpiperidin-4-yl)-2-(2-methyl-2H-indazol-5-yl)-4H-pyrazino[1,2-a]pyrimidin-4-one], the IC50 lay in the range of 1000 to 3000 nM.
In turn, `Cn1cc2cc(-c3cc(=O)n4cc(C5CCN(CCO)CC5)ncc4n3)ccc2n1` [compound 569, 7-[1-(2-hydroxyethyl)piperidin-4-yl]-2-(2-methyl-2H-indazol-5-yl)-4H-pyrazino[1,2-a]pyrimidin-4-one] returned an IC50 of 1000 to 3000 nM.
For `CN1CCC(c2ccc3nc(-c4ccc5nn(C)cc5c4)cc(=O)n3c2)CC1` [compound 578, 2-(2-methyl-2H-indazol-5-yl)-7-(1-methylpiperidin-4-yl)-4H-pyrido[1,2-a]pyrimidin-4-one] the value was 3000 to 33000 nM.
For `Cc1cn2cc(-c3cc(=O)n4cc(C5CCN(C)CC5)ncc4n3)ccc2n1` [compound 579, 2-(2-methylimidazo[1,2-a]pyridin-6-yl)-7-(1-methylpiperidin-4-yl)-4H-pyrazino[1,2-a]pyrimidin-4-one] the value was 3000 to 33000 nM.
For `CCN1CCC(c2cn3c(=O)cc(-c4ccc5nc(C)cn5c4)nc3cn2)CC1` [compound 580, 7-(1-ethylpiperidin-4-yl)-2-(2-methylimidazo[1,2-a]pyridin-6-yl)-4H-pyrazino[1,2-a]pyrimidin-4-one] the value was 3000 to 33000 nM; for `Cc1cn2cc(-c3cc(=O)n4cc(C5CCN(CCO)CC5)ncc4n3)ccc2n1` [compound 581, 7-[1-(2-hydroxyethyl)piperidin-4-yl]-2-(2-methylimidazo[1,2-a]pyridin-6-yl)-4H-pyrazino[1,2-a]pyrimidin-4-one], 1000 to 3000 nM; for `Cc1cn2nc(-c3cc(=O)n4cc(N5CCC(N(C)CCO)CC5)cc(C)c4n3)cc2c(C)n1` [compound 582, 2-(4,6-dimethylpyrazolo[1,5-a]pyrazin-2-yl)-7-{4-[(2-hydroxyethyl)(methyl)amino]piperidin-1-yl}-9-methyl-4H-pyrido[1,2-a]pyrimidin-4-one], 3000 to 33000 nM.
Take `Cc1cn2nc(-c3cc(=O)n4cc(N5CCC(C)(N)CC5)ccc4n3)cc2c(C)n1` [compound 584, 7-(4-amino-4-methylpiperidin-1-yl)-2-(4,6-dimethylpyrazolo[1,5-a]pyrazin-2-yl)-4H-pyrido[1,2-a]pyrimidin-4-one]: the IC50 was 3000 to 33000 nM.
For `Cc1cn2cc(-c3cc(=O)n4cc(C5CCNCC5)ncc4n3)ccc2n1` [compound 585, 2-(2-methylimidazo[1,2-a]pyridin-6-yl)-7-(piperidin-4-yl)-4H-pyrazino[1,2-a]pyrimidin-4-one] the value was 500 to 1000 nM; for `Cn1cc2cc(-c3cc(=O)n4cc(N5CCNCC5)ncc4n3)ccc2n1` [compound 586, 2-(2-methyl-2H-indazol-5-yl)-7-(piperazin-1-yl)-4H-pyrazino[1,2-a]pyrimidin-4-one], 3000 to 33000 nM.
With `Cc1cn2cc(-c3cc(=O)n4cc(C5CCNCC5)ncc4n3)cc(Cl)c2n1` [compound 587, 2-(8-chloro-2-methylimidazo[1,2-a]pyridin-6-yl)-7-(piperidin-4-yl)-4H-pyrazino[1,2-a]pyrimidin-4-one] the figure was 100 to 500 nM; with `Cc1cn2cc(-c3cc(=O)n4cc(C5CCNCC5)ncc4n3)cc(C)c2n1` [compound 588, 2-(2,8-dimethylimidazo[1,2-a]pyridin-6-yl)-7-(piperidin-4-yl)-4H-pyrazino[1,2-a]pyrimidin-4-one], 500 to 1000 nM.
With `CN1CCN(c2cn3c(=O)cc(-c4ccc5nn(C)cc5c4)nc3cn2)CC1` [compound 589, 2-(2-methyl-2H-indazol-5-yl)-7-(4-methylpiperazin-1-yl)-4H-pyrazino[1,2-a]pyrimidin-4-one] the figure was 3000 to 33000 nM.
